The conditions of this data set: Crystal; DTA.

Numbers after ± are expanded uncertainties.

`O=C1C=CC(=O)O1` [maleic anhydride]: the Normal melting temperature worked out at 52.80 ± 0.5 °C.

The values are drawn from the NIST ThermoML archive (doi:10.1016/j.fluid.2014.01.008).
